Results published in patent US12433908B2, “Use of nicotinamide riboside, nicotinic acid riboside, and nicotinamide mononucleotide, reduced nicotinyl compounds, and nicotinoyl compound derivatives in infant formula for healthy development” (ChromaDex, Inc., priority 2016, dated 2025).
“Also recorded” adds a separate entry of the source.

Assays:
[1] = Fecal SCFA analysis by gas chromatography in piglets given NR solution; assay type: in vivo, piglets (Yorkshire/Hampshire crossbred)
Source text: Sixteen (n=16) Yorkshire/Hampshire crossbred piglets were obtained from the University of California, Davis Swine Teaching and Research Center and received on lactation day (“LD”) 14. Prior to arrive, the piglets were processed by the suppler between 1-3 days of age by administration of iron and an antibiotic ([…] for swine) as is common practice at the University of California, Davis Swine Facility. It is not common practice at the University of California, Davis Swine Facility to give a second dose of iron and antibiotics unless it becomes necessary. The piglets were from two litters (litters 15 and 17), weaned at 17 days of age, and randomly placed into one of two groups balanced for litter, sex, and weight. The animals were not acclimated to the facility at arrival and were subsequently acclimated to the test diet administration system. The piglets were weaned into a temperature-controlled room (approximately 27-29° C.) that contained 10 adjacent pens. The piglets were group-housed in the nursery room at the Swine Facility, which is an enclosed room with access restricted to trained personnel. The two groups were separated by one pen containing piglets of similar age. Each morning enough nicotinamide riboside (NR, I) in water solution was prepared for that day's dose administration according to the dose preparation protocol. At least 5 mL of prepared dose was reserved and immediately frozen after preparation each day for analysis of nicotinamide riboside (NR, I) for the purpose of confirming stability of the dose material. The doses were stored at refrigeration temperature while not in use. Nicotinamide riboside (NR, I) was dosed once per day in the morning and at the same time each day. Piglets in the control group received the same volume of plain water and were dosed on the same schedule. Starting on Day 1, animals in the nicotinamide riboside (NR, I) group were dosed once daily (in the morning) with 277 mg nicotinamide riboside (NR, I) per pig resuspended in water for seven days. After one week, animals were dosed once daily with 342 mg nicotinamide riboside (NR, I) per pig delivered in 2.5 mL for seven days. For Days 1 and 2, the nicotinamide riboside (NR, I) solution was prepared by resuspending 2770 mg nicotinamide riboside (NR, I) in 50 mL water, and 5 mL of this solution was delivered to each pig by squirting it into the back of the mouth using a 10 mL syringe with a piece of tubing attached to the end. To reduce the volume to more efficiently deliver the nicotinamide riboside (NR, I) solution, the 2770 mg was resuspended in 25 mL water and 2.5 mL of the solution was squirted into the back of the mouth of each pig using a 3 mL syringe for Days 3-7. For Days 8-14, 3420 mg nicotinamide riboside (NR, I) was resuspended in 25 mL water and 2.5 mL of this solution was delivered to each pig. Each day prior to dosing, 2.5 mL of the nicotinamide riboside (NR, I) (5 mL on Days 1 and 2) were placed into a separate tube and frozen. Fresh fecal samples were collected from each pig on Days 1 (baseline), 8 (Wk 1), and 14 (Wk 2), and frozen. When a freshly voided sample could not be obtained, the rectum was swabbed. A total of 100 mg of feces from each pig was used for SCFA analysis using gas chromatography with known standards for acetic acid, propionic acid, isobutyric acid, butyric acid, isovaleric acid, and valeric acid. Samples were extracted with 25% metaphosphoric acid and each extraction run in triplicate on a GC equipped with the PeakSimple Chromatography Data System. Data was analyzed using a one-way ANoVA or the non-parametric Kruskal-Wallis test if the distribution of values was not Gaussian. A conservative analysis of the data is presented below (animals that had to be swabbed to get a fecal sample) in Table 3 and an analysis of the data including the swab samples is in Table 8. The trends are similar, the p-values are not.

milk proteins = test: WaterLOGSY NMR direct binding of 15N-labeled NR to milk proteins; settings: increasing additions of milk
Source text: Whey protein fraction and casein protein have been identified as leading candidates to bind directly to and stabilize nicotinamide riboside (NR, I) in milk. The addition of these proteins in particular (either alone or in combination with other proteins) in order to stabilize nicotinamide riboside (NR, I) in liquid constitutes another embodiment of a method of delivery of the present invention. […] In this experiment, Water-Ligand Observed via Gradient Spectroscopy (WaterLOGSY NMR) was used to detect direct binding of stable, isotope-labeled (^15N) nicotinamide riboside (NR, I) to milk proteins. This is visualized as a concentration-dependent shift in the nicotinamide riboside (NR, I) spectra with increasing additions of milk. The concentric shapes shifts from left to right are the results of addition of no milk, 150 mL of milk, and […] of milk, respectively.

[2] = 1 week of daily administration of 277 mg of NR in water
[3] = Wk 1, 277 mg/pig once daily oral
[4] = including the swab samples, Baseline, before dosing
[5] = including the swab samples, Wk 1, 277 mg/pig once daily oral
[6] = including the swab samples, third column group, headed 'Wk 1' again
[7] = without swab samples, Baseline, before dosing
[8] = without swab samples, Wk 1, 277 mg/pig once daily oral
[9] = without swab samples, third column group, headed 'Wk 1' again

NC(=O)c1ccc[n+]([C@@H]2O[C@H](CO)[C@@H](O)[C@H]2O)c1 [NR, Nicotinamide riboside]
Fecal SCFA levels [1, 2]: increased | fecal acetic acid (C2), propionic acid (C3), and butyric acid (C4) [1, 2]: marked increases | Fecal SCFA Acetic Acid, Δ vs. baseline (NR) [1, 3]: 15.1 ppm | Fecal SCFA Butyric Acid, Δ vs. baseline (NR) [1, 3]: 26.3 ppm | Fecal SCFA Isobutyric Acid, Δ vs. baseline (NR) [1, 3]: −3.4 ppm | Fecal SCFA Isovaleric Acid, Δ vs. baseline (NR) [1, 3]: −4.3 ppm | Fecal SCFA Propionic Acid, Δ vs. baseline (NR) [1, 3]: 35.9 ppm | Fecal SCFA Valeric Acid, Δ vs. baseline (NR) [1, 3]: 5.4 ppm | Fecal SCFA Acetic Acid, Significant change from baseline within group ([1]; Wk 1 vs. baseline): No | Fecal SCFA Butyric Acid, Significant change from baseline within group ([1]; Wk 1 vs. baseline): statistically significant; also recorded: Yes, P < 0.05 | Fecal SCFA Isobutyric Acid, Significant change from baseline within group ([1]; Wk 1 vs. baseline): No | Fecal SCFA Isovaleric Acid, Significant change from baseline within group ([1]; Wk 1 vs. baseline): No | Fecal SCFA Propionic Acid, Significant change from baseline within group ([1]; Wk 1 vs. baseline): statistically significant; also recorded: Yes, P < 0.05 | Fecal SCFA Valeric Acid, Significant change from baseline within group ([1]; Wk 1 vs. baseline): No | Fecal SCFA Isobutyric Acid ([1]; including the swab samples): 7.9 ± 10.9 ppm | Fecal SCFA Propionic Acid ([1]; including the swab samples): 51.5 ± 45.7 ppm | Fecal SCFA Valeric Acid ([1]; including the swab samples): 7.8 ± 11.3 ppm | Fecal SCFA Acetic Acid [1, 4]: 43.5 ± 23.5 ppm | Fecal SCFA Butyric Acid [1, 4]: 11.1 ± 18.4 ppm | Fecal SCFA Isobutyric Acid [1, 4]: 9.5 ± 9.3 ppm | Fecal SCFA Isovaleric Acid [1, 4]: 16.8 ± 14.0 ppm | Fecal SCFA Propionic Acid [1, 4]: 15.3 ± 10.6 ppm | Fecal SCFA Valeric Acid [1, 4]: 2.4 ± 6.9 ppm | Fecal SCFA Acetic Acid [1, 5]: 58.6 ± 14.5 ppm | Fecal SCFA Butyric Acid [1, 5]: 37.4 ± 16.8 ppm | Fecal SCFA Isobutyric Acid [1, 5]: 6.1 ± 6.4 ppm | Fecal SCFA Isovaleric Acid [1, 5]: 12.5 ± 9.1 ppm | Fecal SCFA Propionic Acid [1, 5]: 51.2 ± 13.2 ppm | Fecal SCFA Valeric Acid [1, 5]: 7.8 ± 6.6 ppm | Fecal SCFA Acetic Acid [1, 6]: 70.1 ± 62.6 ppm | Fecal SCFA Butyric Acid [1, 6]: 41.2 ± 34.6 ppm | Fecal SCFA Isovaleric Acid [1, 6]: 11.3 ± 15.7 ppm | Fecal SCFA Isobutyric Acid ([1]; without swab samples): 15.9 ± 10.6 ppm | Fecal SCFA Propionic Acid ([1]; without swab samples): 90.0 ± 30.4 ppm | Fecal SCFA Valeric Acid ([1]; without swab samples): 15.7 ± 11.5 ppm | Fecal SCFA Acetic Acid [1, 7]: 43.5 ± 23.5 ppm | Fecal SCFA Butyric Acid [1, 7]: 11.1 ± 18.4 ppm | Fecal SCFA Isobutyric Acid [1, 7]: 9.5 ± 9.3 ppm | Fecal SCFA Isovaleric Acid [1, 7]: 16.8 ± 14.0 ppm | Fecal SCFA Propionic Acid [1, 7]: 15.3 ± 10.6 ppm | Fecal SCFA Valeric Acid [1, 7]: 2.4 ± 6.9 ppm | Fecal SCFA Acetic Acid [1, 8]: 55.78 ± 13.4 ppm | Fecal SCFA Butyric Acid [1, 8]: 36.9 ± 18.3 ppm | Fecal SCFA Isobutyric Acid [1, 8]: 5.8 ± 6.5 ppm | Fecal SCFA Isovaleric Acid [1, 8]: 11.9 ± 9.8 ppm | Fecal SCFA Propionic Acid [1, 8]: 49.3 ± 13.3 ppm | Fecal SCFA Valeric Acid [1, 8]: 6.7 ± 6.7 ppm | Fecal SCFA Acetic Acid [1, 9]: 118.7 ± 55.01 ppm | Fecal SCFA Butyric Acid [1, 9]: 70.8 ± 21.9 ppm | Fecal SCFA Isovaleric Acid [1, 9]: 22.5 ± 15.5 ppm | direct binding to milk proteins (milk proteins): binds to proteins in milk
